The results in this text go back to patent US20230203021A1, “GLP-1 RECEPTOR AGONIST, PHARMACEUTICAL COMPOSITION COMPRISING SAME, AND METHOD FOR PREPARING SAME” (LG CHEM, LTD., priority 2020, published 2023).

For orientation: EC50 means the concentration at which the effect is half-maximal. A lower EC50 goes with higher potency in that assay.

SMILES strings stand for the structures.

This experiment deals with T1, hGLP-1R (Homo sapiens, UniProt P43220).
T1 construct: expressed in transfected cells; host or cells: CHO-K1
T1 sequence (P43220 24-463): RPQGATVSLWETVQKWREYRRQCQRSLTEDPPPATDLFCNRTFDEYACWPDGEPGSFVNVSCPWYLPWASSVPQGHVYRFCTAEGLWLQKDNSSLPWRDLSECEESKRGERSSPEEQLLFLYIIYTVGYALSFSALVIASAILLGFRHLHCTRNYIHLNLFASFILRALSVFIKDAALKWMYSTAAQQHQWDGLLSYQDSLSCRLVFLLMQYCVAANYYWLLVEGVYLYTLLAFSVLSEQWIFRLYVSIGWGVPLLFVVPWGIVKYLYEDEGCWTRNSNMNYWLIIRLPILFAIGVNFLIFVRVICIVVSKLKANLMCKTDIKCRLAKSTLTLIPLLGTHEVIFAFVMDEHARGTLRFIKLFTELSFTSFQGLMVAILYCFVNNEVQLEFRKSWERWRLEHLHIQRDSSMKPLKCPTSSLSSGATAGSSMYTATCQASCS
The experiment is described as follows: Measurement of activity of GLP-1R agonist (cell-based luciferase assay), CHO-K1/hGLP-1R/CRE-luciferase cell line. Particulars: GLP-1R activity; CHO-K1/hGLP-1R/CRE-luciferase cells, 9 concentrations, four hours of incubation, Bright-Glo luminescence. The procedure:
15,000 cells of a CHO-K1/hGLP-1R/CRE-luciferase cell line were seeded in a 96-well plate. A medium used herein was Ham’s F-12 Nutrient medium. The cells were incubated for 18 hours in a 5% CO2 incubator which was maintained at 37° C., and then treated with drugs. Each drug dispensed at 9 different concentrations was dissolved in a DMEM/F-12 + 1% FBS medium, and the cell line was treated with each of 100 µl thereof. After four hours of incubation, a Bright-Glo® luciferase assay system kit was used to add 30 µl of an assay reagent per well. A plate was stored at room temperature for 15 minutes, and then luminescence was measured using a SpectraMax M5 reader.
Turning to `O=C(O)c1ccc2nc(Cc3ccc(-c4cccc(OCc5ccc(Cl)cc5F)n4)cc3F)n(C[C@@H]3CCCO3)c2c1` [Example 30, (S)-2-(4-(6-((4-chloro-2-fluorobenzyl)oxy)pyridin-2-yl)-2-fluorobenzyl)-1-((tetrahydrofuran-2-yl)methyl)-1H-benzo[d]imidazole-6-carboxylic acid], the response was half-maximal at 0.0327 nM (EC50).
As to `O=C(O)c1ccc2nc(Oc3ccc(-c4cccc(OCc5ccc(Cl)cc5F)n4)cc3F)n(C[C@@H]3CCCO3)c2c1` [Example 31, (S)-2-(4-(6-((4-chloro-2-fluorobenzyl)oxy)pyridin-2-yl)-2-fluorophenoxy)-1-((tetrahydrofuran-2-yl)methyl)-1H-benzo[d]imidazole-6-carboxylic acid], the EC50 was above 80 nM.
As to `O=C(O)c1ccc2nc(Oc3ccc(-c4cccc(OCc5ccc(Cl)cc5F)n4)cc3Cl)n(C[C@@H]3CCCO3)c2c1` [Example 32, (S)-2-(2-chloro-4-(6-((4-chloro-2-fluorobenzyl)oxy)pyridin-2-yl)phenoxy)-1-((tetrahydrofuran-2-yl)methyl)-1H-benzo[d]imidazole-6-carboxylic acid], the EC50 was found to be 3.43 nM.
`O=C(O)c1ccc2nc(Cc3ccc(-c4cccc(OCc5ccc(Cl)cc5F)n4)cc3)n(C[C@H]3CCOC3)c2c1` [Example 33, (R)-2-(4-(6-((4-chloro-2-fluorobenzyl)oxy)pyridin-2-yl)benzyl)-1-((tetrahydrofuran-3-yl)methyl)-1H-benzo[d]imidazole-6-carboxylic acid] returned an EC50 of 0.365 nM.
`O=C(O)c1ccc2nc(Cc3ccc(-c4cccc(OCc5ccc(Cl)cc5F)n4)c(Cl)c3)n(C[C@@H]3CCCO3)c2c1` [Example 34, (S)-2-(3-chloro-4-(6-((4-chloro-2-fluorobenzyl)oxy)pyridin-2-yl)benzyl)-1-((tetrahydrofuran-2-yl)methyl)-1H-benzo[d]imidazole-6-carboxylic acid] displayed an EC50 of 0.087 nM.
In the case of `O=C(O)c1ccc2nc(Cc3ccc(-c4cccc(OCc5ccc(Cl)cc5F)n4)cc3)n(C[C@@H]3CCOC3)c2c1` [Example 35, (S)-2-(4-(6-((4-chloro-2-fluorobenzyl)oxy)pyridin-2-yl)benzyl)-1-((tetrahydrofuran-3-yl)methyl)-1H-benzo[d]imidazole-6-carboxylic acid] it was 0.784 nM; in that of `O=C(O)c1ccc2nc(Cc3ccc(-c4cccc(OCc5ccc(C(F)(F)F)cc5F)n4)cc3)n(C[C@@H]3CCOC3)c2c1` [Example 36, (S)-2-(4-(6-((2-fluoro-4-(trifluoromethyl)benzyl)oxy)pyridin-2-yl)benzyl)-1-((tetrahydrofuran-3-yl)methyl)-1H-benzo[d]imidazole-6-carboxylic acid], 2.09 nM; in that of `O=C(O)c1ccc2nc(Cc3ccc(-c4cccc(OCc5ccc(Cl)cc5F)n4)c(Cl)c3)n(C[C@@H]3CCOC3)c2c1` [Example 37, (S)-2-(3-chloro-4-(6-((4-chloro-2-fluorobenzyl)oxy)pyridin-2-yl)benzyl)-1-((tetrahydrofuran-3-yl)methyl)-1H-benzo[d]imidazole-6-carboxylic acid], 1.34 nM.
